Results published in PMC12645191, “Dicarboxylate and dicarboxylic acid appended supramolecular self-associating amphiphiles as antimicrobial agents against high priority bacterial pathogens” (Organic & Biomolecular Chemistry, 2025).
“And” between values parts separate entries of the source, which are not always exact repeats. Equal entries are not always repeated. Blank lines part the entries; values can stand above or below the compound they belong to.

Legend:
S. aureus ATCC 9144 = experiment: inhibition of bacterial growth, OD600 after 20 h; format: cell-based, Staphylococcus aureus; conditions: SSA 5.0 mM, 2.5% ethanol, negative = enhanced growth
Protocol: (§1) With the self-associative properties of 1–10 established, the antimicrobial activity of these SSAs were determined against a panel of clinically relevant, high-priority pathogens including: P. aeruginosa PAO1; Klebsiella pneumonia (K. pneumoniae) M6; E. coli NCTC 12923; Acinetobacter baumannii (A. baumannii) ATCC 17978; S. aureus ATCC 9144; Enterococcus faecalis (E. faecalis) NCTC 775; and Enterococcus faecium (E. faecium) NCTC 12204. […] However, it should be noted that the SSA stock solution was prepared in a H2O 5% EtOH solution, to ensure that the SSA aggregates formed were in line with those characterised within the scope of the SSA self-association studies.
(§2) Section 3: Biological methods
(§3) These methods were taken directly from UK Health and Security Office (UKHSA) standard […]
(§4) Preparation of Luria Broth media (LB): Yeast extract (5.0 g), tryptone (10.0 g) and sodium chloride (10.0 g) were dissolved in dH₂O (1.0 L) then divided into bottles and autoclaved.
(§5) Preparation of Luria Broth (LB) agar plates: Agar (6.0 g) was added to LB (400 mL) and autoclaved. Once cool, the LB agar was poured into sterile petri dishes under sterile conditions and allowed to set. LB plates were stored at 4 °C until use.
(§6) Preparation of bacterial plates: Sterile LB agar plates were streaked using streaked using the desired bacteria i) Pseudomonas aeruginosa (P.aeruginosa) PAO1, ii) Klebsiella pneumoniae (K. pneumoniae) M6 iii) E. coli NCTC 12923 and iv) Acinetobacter baumannii (A. baumannii) ATCC 17978 and Gram-positive i) Staphylococcus aureus (S. aureus) ATCC 9144 ii) Enterococcus faecalis (E. faecalis) NCTC 775 and iii) Enterococcus faecium (E. faecium ) NCTC 12204, then incubated at 37 °C overnight.
(§7) Preparation of Inoculum: An initial culture was made up by inoculating LB media (5 mL) with a single colony of bacteria under sterile conditions and incubated at 37 °C with shaking overnight. The following day, overnight bacterial cultures were subcultured into fresh LB medium to a starting OD600 of 0.01.
(§8) Preparation of 96 well microplate for MIC50: The 1:100 cell suspension (150 µL) was dispensed into individual wells under sterile conditions. SSAs (30 µL) were added to the wells to equal a total volume of 180 µL in the wells. Six repeats of each concentration for each SSA were created each plate. The plates were sealed using parafilm, then incubated at 37 °C in a microplate reader for 20 hours. OD600 endpoint data was used to generate growth curves. […]

A. baumannii ATCC 17978 = experiment: inhibition of bacterial growth, OD600 after 20 h; format: cell-based, Acinetobacter baumannii; conditions: SSA 5.0 mM, 2.5% ethanol, negative = enhanced growth
Protocol: as §1, §2, §3, §4, §5, §6, §7, §8

[1] = dynamic light scattering (DLS) of SSA aggregates; format: physicochemical; conditions: 5.6 mM, H2O 5.0% EtOH, 298 K
Protocol: Dynamic light scattering (DLS) and zeta potential measurements in H2O 5.0% EtOH were used to determine the hydrodynamic diameter (dH) and stability of the higher-order SSA aggregates detected by (Q) ^1H NMR spectroscopy at 5.6 mM, Table 1. […] However, we are unable to confidently report a dH for 1 due to the instability of this system, which is supported by a zeta potential value of −26 mV, obtained for this SSA under the same experimental conditions. […] Due to the instability of these systems in the absence of solvent, attempts to further characterise these systems through SEM or AFM are not possible.[48]

[2] = tensiometry: critical aggregate concentration (CAC) and surface tension; format: physicochemical; conditions: for Surface tension at CAC: H2O/5.0 % EtOH
Protocol: As the (Q) ^1H NMR spectroscopy experiments conducted at 5.6 mM in a D2O 5.0% EtOH solution confirmed the presence of higher-order self-associated structures with solid-like properties, concentration dependent surface tension measurements, obtained through tensiometry, were used to calculate critical aggregate concentration (CAC). Here the CAC is defined as the point at which an increase in SSA concentration no longer decreases surface tension but instead results in the formation of higher-order self-associated structures.

E. faecalis NCTC 775 = experiment: inhibition of bacterial growth, OD600 after 20 h; format: cell-based, Enterococcus faecalis; conditions: SSA 5.0 mM, 2.5% ethanol, negative = enhanced growth; for inhibition at 5000 µM: Enterococcus faecalis, NCTC775, 20 h, read-out: Percentage inhibition of bacterial growth, NCTC 775 (E. faecalis)
Protocol: as §1, §2, §3, §4, §5, §6, §7, §8

E. coli NCTC 12923 = experiment: inhibition of bacterial growth, OD600 after 20 h; format: cell-based, Escherichia coli; conditions: SSA 5.0 mM, 2.5% ethanol, negative = enhanced growth
Protocol: as §1, §2, §3, §4, §5, §6, §7, §8

[3] = quantitative (Q) 1H NMR spectroscopy, proportion of SSA becoming NMR silent (higher-order aggregates); format: physicochemical
Protocol: To confirm the presence of higher order self-associative structures quantitative (Q) ^1H NMR spectroscopy studies were undertaken at 5.6 mM in D2O 5% EtOH. Here the ^1H NMR resonances attributed to the EtOH are used as an internal standard.
Table S1 – Overview of results of the quantitative (Q) 1H NMR studies for 1, 3, 5, 7 and 9
5.0 % EtOH . Values given in % represent the observed proportion of the SSA that has become
Table S2 – Overview of results of the quantitative (Q) 1H NMR studies for 2, 4, 6, 8 and 10
5.0 % EtOH. Values given in % represent the observed proportion of anion and cation that has

K. pneumoniae M6 = experiment: inhibition of bacterial growth, OD600 after 20 h; format: cell-based, Klebsiella pneumoniae; conditions: SSA 5.0 mM, 2.5% ethanol, negative = enhanced growth; for inhibition at 5000 µM: Klebsiella pneumoniae, M6, 20 h, read-out: Percentage inhibition of bacterial growth, M6 (K. pneumoniae)
Protocol: as §1, §2, §3, §4, §5, §6, §7, §8

E. faecium NCTC 12204 = experiment: inhibition of bacterial growth, OD600 after 20 h; format: cell-based, Enterococcus faecium; conditions: SSA 5.0 mM, 2.5% ethanol, negative = enhanced growth; for inhibition at 5000 µM: Enterococcus faecium, NCTC12204, 20 h, read-out: Percentage inhibition of bacterial growth, NCTC 12204 (E. faecium)
Protocol: as §1, §2, §3, §4, §5, §6, §7, §8

P. aeruginosa PAO1 = experiment: inhibition of bacterial growth, OD600 after 20 h; format: cell-based, Pseudomonas aeruginosa; conditions: SSA 5.0 mM, 2.5% ethanol, negative = enhanced growth, listed as 5
Protocol: as §1, §2, §3, §4, §5, §6, §7, §8

[4] = 5.6 mM, D2O 5.0% EtOH, 298 K, listed as 10

DLS Peak 2 maxima ([1]; listed as 5): 1328 nm
Polydispersity index (%) ([1]; listed as 5): 22.7 (± 1.5) %
dH (DLS intensity distribution peak 1 maxima) ([1]; listed as 5): 153 nm
ST at CAC ([2]; H2O 5.0% EtOH, 298 K): 58 mN m^−1
CAC (footnote in place of a value) ([2]; H2O 5.0% EtOH, 298 K, listed as 5): ^b (CAC above the limit of solubility)
Surface tension at CAC ([2]; listed as 5): 58.22 mN/m
(Q) 1H NMR spectroscopy, proportion NMR silent, acid or anion ([3]; 5.6 mM, D2O 5.0% EtOH, 298 K, listed as 5): 56%
(Q) 1H NMR, proportion NMR silent, SSA acid or anion ([3]; ~112 mM, DMSO-d6 1.0% DCM): 0%
SMILES: COc1ccc(NC(=O)N[C@@H](CCC(=O)O)C(=O)O)cc1 [SSA 5]
Percentage inhibition of bacterial growth, ATCC 9144 (S. aureus) (S. aureus ATCC 9144; listed as 5): 12.67% and 13%
Percentage inhibition of bacterial growth, ATCC 17978 (A. baumannii) (A. baumannii ATCC 17978; listed as 5): 18.61% and 19%
inhibition at 5000 µM (E. faecalis NCTC 775): 13%
Percentage inhibition of bacterial growth, NCTC 775 (E. faecalis) (E. faecalis NCTC 775; listed as 5): 13%
Percentage inhibition of bacterial growth, NCTC 12923 (E. coli) (E. coli NCTC 12923; listed as 5): 70.96% and 71%
inhibition at 5000 µM (K. pneumoniae M6): 12.8%
Percentage inhibition of bacterial growth, M6 (K. pneumoniae) (K. pneumoniae M6; listed as 5): 13%
inhibition at 5000 µM (E. faecium NCTC 12204): 5.8%
Percentage inhibition of bacterial growth, NCTC 12204 (E. faecium) (E. faecium NCTC 12204; listed as 5): 6%
Percentage inhibition of bacterial growth, PAO1 (P. aeruginosa) (P. aeruginosa PAO1): 0%

Polydispersity index (%) ([1]; listed as 10): 26.0 (± 0.5) %
dH (DLS intensity distribution peak 1 maxima) ([1]; listed as 10): 307 nm
CAC ([2]; H2O 5.0% EtOH, 298 K): 26.00 mM and 26 mM
ST at CAC ([2]; H2O 5.0% EtOH, 298 K): 41 mN m^−1
Surface tension at CAC ([2]; listed as 10): 41.37 mN/m
(Q) 1H NMR spectroscopy, proportion NMR silent, acid or anion [3, 4]: 38%
(Q) 1H NMR spectroscopy, proportion NMR silent, cation [3, 4]: 43.6% and 44%
(Q) 1H NMR, proportion NMR silent, SSA acid or anion ([3]; ~112 mM, DMSO-d6 1.0% DCM): 0%
(Q) 1H NMR, proportion NMR silent, cation ([3]; ~112 mM, DMSO-d6 1.0% DCM): 0%
SMILES: O=C(O)CC[C@H](NC(=O)Nc1ccc(Br)cc1)C(=O)O [SSA 10]
Percentage inhibition of bacterial growth, ATCC 9144 (S. aureus) (S. aureus ATCC 9144; listed as 10): 17.46% and 17%
Percentage inhibition of bacterial growth, ATCC 17978 (A. baumannii) (A. baumannii ATCC 17978; listed as 10): 49.97% and 50%
inhibition at 5000 µM (E. faecalis NCTC 775): 23.1%
Percentage inhibition of bacterial growth, NCTC 775 (E. faecalis) (E. faecalis NCTC 775; listed as 10): 23%
inhibition at 5000 µM (E. coli NCTC 12923; Escherichia coli, NCTC12923, 20 h, read-out: Percentage inhibition of bacterial growth, NCTC 12923 (E. coli)): 67.9%
Percentage inhibition of bacterial growth, NCTC 12923 (E. coli) (E. coli NCTC 12923; listed as 10): 68%
inhibition at 5000 µM (K. pneumoniae M6): 32%
Percentage inhibition of bacterial growth, M6 (K. pneumoniae) (K. pneumoniae M6; listed as 10): 32%
inhibition at 5000 µM (E. faecium NCTC 12204): 34.1%
Percentage inhibition of bacterial growth, NCTC 12204 (E. faecium) (E. faecium NCTC 12204; listed as 10): 34%
